In this assay the test system is LCMV. Details: species or system BALB/c mice. The following applies: mouse, in vivo.

With `O=C1O[C@H]2[C@@H]3OC(=O)c4cc(O)c(O)c(O)c4-c4c(O)c(O)c5oc(=O)c6c(c(O)c(O)c7oc(=O)c4c5c76)-c4c(cc(O)c(O)c4O)C(=O)OC[C@H]3OC(O)[C@@H]2OC(=O)c2cc(O)c(O)c(O)c2-c2c1cc(O)c(O)c2O` (mixture of isomers) [Punicalagin], the “Viral copies in the liver” value was “no effect”. The same measure, in the same setting: to `O=C(O)C[C@@H]1C(=O)O[C@H]2[C@H](OC(=O)c3cc(O)c(O)c(O)c3)[C@@H](OC(=O)c3cc(O)c(O)c4c3[C@H]1[C@H](O)C(=O)O4)[C@H](OC(=O)c1cc(O)c(O)c(O)c1)O[C@@H]2COC(=O)c1cc(O)c(O)c(O)c1` [Chebullinic acid, chebulinic acid] belongs “no effect”; to `O=C(/C=C/c1ccc(O)c(O)c1/C=C/c1ccc(O)c(O)c1)O[C@H](Cc1ccc(O)c(O)c1)C(=O)O` [Salvianolic acid A, salvianolic acid A], “significantly reduced”.

Take `NC(=O)c1nc(F)c[nH]c1=O` [T-705, favipiravir, reference compound]: the “Body weight decrease of LCMV-challenged mice” value is “decrease was halted” and the “Viral copies in the liver” value is recorded as “significantly reduced”.

The record behind these values is paper PMC12764842 (Acta Pharmacologica Sinica, 2025).
